Test [1] has as its target T1, Cytoplasmic tyrosine-protein kinase BMX (Homo sapiens) (UniProt P51813).
T1 sequence (whole entry): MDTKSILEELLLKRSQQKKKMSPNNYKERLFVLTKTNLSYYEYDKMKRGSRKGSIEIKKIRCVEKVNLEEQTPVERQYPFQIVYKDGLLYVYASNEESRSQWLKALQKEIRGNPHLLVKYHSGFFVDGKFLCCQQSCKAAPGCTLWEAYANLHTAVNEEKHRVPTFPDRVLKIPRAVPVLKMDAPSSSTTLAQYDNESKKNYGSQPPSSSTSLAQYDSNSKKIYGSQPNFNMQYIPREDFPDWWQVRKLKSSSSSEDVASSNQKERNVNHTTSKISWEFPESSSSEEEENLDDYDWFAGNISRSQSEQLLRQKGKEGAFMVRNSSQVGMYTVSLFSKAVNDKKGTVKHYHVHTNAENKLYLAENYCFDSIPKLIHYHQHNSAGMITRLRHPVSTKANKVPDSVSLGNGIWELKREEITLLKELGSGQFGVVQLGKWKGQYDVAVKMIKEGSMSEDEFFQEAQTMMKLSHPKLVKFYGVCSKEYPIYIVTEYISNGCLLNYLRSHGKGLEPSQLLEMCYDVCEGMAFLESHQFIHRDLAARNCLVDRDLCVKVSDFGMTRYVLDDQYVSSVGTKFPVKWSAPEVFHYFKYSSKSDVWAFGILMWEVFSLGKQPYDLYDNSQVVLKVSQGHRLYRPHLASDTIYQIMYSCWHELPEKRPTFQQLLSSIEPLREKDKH
The test is described as follows: Inhibition of human full length BMX expressed in baculovirus assessed as substrate phosphorylation using fluorescence-labelled peptides as substrate at 2 uM after 90 mins by microfluidic peptide phosphorylation assay.

The target in test [2] is T2, Serine/threonine-protein kinase Sgk1 (Homo sapiens) (UniProt O00141).
T2 sequence (whole entry): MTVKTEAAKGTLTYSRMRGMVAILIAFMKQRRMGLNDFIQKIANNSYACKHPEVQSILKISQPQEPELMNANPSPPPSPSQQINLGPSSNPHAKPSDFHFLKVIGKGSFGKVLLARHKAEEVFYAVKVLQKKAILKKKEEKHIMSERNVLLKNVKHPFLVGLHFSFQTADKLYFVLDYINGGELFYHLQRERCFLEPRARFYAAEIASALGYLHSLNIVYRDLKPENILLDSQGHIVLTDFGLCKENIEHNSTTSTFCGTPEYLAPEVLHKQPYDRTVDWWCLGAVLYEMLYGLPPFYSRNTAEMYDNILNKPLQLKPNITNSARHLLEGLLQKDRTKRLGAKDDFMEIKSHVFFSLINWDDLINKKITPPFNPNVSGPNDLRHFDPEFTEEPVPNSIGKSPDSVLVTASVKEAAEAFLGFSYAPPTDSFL
The test is described as follows: Inhibition of human truncated SGK1 expressed in baculovirus assessed as substrate phosphorylation using fluorescence-labelled peptides as substrate at 0.2 uM after 90 mins by microfluidic peptide phosphorylation assay.

Test [3] concerns the target Hepatocyte growth factor receptor (Homo sapiens) (UniProt P08581). The test can be described thus: Inhibition of human MET cytoplasmic domain expressed in baculovirus assessed as substrate phosphorylation using fluorescence-labelled peptides as substrate at 0.2 uM after 90 mins by microfluidic peptide phosphorylation assay.
In test [4] the target is T3, Serine/threonine-protein kinase Chk1 (Homo sapiens) (UniProt O14757).
T3 sequence (whole entry): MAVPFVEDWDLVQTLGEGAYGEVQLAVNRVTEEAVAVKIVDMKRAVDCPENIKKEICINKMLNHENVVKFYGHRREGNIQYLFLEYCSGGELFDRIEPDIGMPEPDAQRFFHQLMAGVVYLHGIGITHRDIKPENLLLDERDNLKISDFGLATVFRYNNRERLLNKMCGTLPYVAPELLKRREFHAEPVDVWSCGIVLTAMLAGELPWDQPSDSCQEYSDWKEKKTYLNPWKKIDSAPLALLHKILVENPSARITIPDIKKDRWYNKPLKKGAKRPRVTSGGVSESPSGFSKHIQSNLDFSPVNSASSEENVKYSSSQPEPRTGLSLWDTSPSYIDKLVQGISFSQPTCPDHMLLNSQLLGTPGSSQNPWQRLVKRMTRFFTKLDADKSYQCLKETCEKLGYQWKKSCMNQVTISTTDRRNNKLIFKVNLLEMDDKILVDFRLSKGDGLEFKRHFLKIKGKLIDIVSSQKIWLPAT
The test can be described thus: Inhibition of human full length CHK1 expressed in baculovirus assessed as substrate phosphorylation using fluorescence-labelled peptides as substrate at 0.2 uM after 90 mins by microfluidic peptide phosphorylation assay.

For test [5], the target named is MAP kinase-activated protein kinase 3 (Homo sapiens) (UniProt Q16644). The test can be described thus: Inhibition of human full length MAPKAPK3 expressed in Escherichia coli cell assessed as substrate phosphorylation using fluorescence-labelled peptides as substrate at 0.2 uM after 90 mins by microfluidic peptide phosphorylation assay.
Test [6] deals with Ribosomal protein S6 kinase alpha-2 (Homo sapiens) (UniProt Q15349). The test can be described thus: Inhibition of human full length RSK3 expressed in baculovirus assessed as substrate phosphorylation using fluorescence-labelled peptides as substrate at 0.06 uM after 90 mins by microfluidic peptide phosphorylation assay.
The target in test [7] is Protein kinase C beta type (Homo sapiens) (UniProt P05771). The test can be described thus: Inhibition of human full length PKC beta2 expressed in baculovirus assessed as substrate phosphorylation using fluorescence-labelled peptides as substrate at 9 uM after 90 mins by microfluidic peptide phosphorylation assay.
Test [8] has as its target Tyrosine-protein kinase Lyn (Homo sapiens) (UniProt P07948). The test can be described thus: Inhibition of human full length LYN expressed in baculovirus assessed as substrate phosphorylation using fluorescence-labelled peptides as substrate at 8 uM after 90 mins by microfluidic peptide phosphorylation assay.
The target in test [9] is Casein kinase I isoform alpha (Homo sapiens) (UniProt P48729). The test can be described thus: Inhibition of human full length CSNK1A1 expressed in baculovirus assessed as substrate phosphorylation using fluorescence-labelled peptides as substrate at […] after 90 mins by microfluidic peptide phosphorylation assay.
In test [10] the target is MAP kinase-activated protein kinase 3 (Homo sapiens) (UniProt Q16644). The test can be described thus: Inhibition of human full length MAPKAPK3 expressed in Escherichia coli cell assessed as substrate phosphorylation using fluorescence-labelled peptides as substrate at […] after 90 mins by microfluidic peptide phosphorylation assay.
Test [11] concerns the target T4, Testis-specific serine/threonine-protein kinase 2 (Homo sapiens) (UniProt Q96PF2).
T4 sequence (whole entry): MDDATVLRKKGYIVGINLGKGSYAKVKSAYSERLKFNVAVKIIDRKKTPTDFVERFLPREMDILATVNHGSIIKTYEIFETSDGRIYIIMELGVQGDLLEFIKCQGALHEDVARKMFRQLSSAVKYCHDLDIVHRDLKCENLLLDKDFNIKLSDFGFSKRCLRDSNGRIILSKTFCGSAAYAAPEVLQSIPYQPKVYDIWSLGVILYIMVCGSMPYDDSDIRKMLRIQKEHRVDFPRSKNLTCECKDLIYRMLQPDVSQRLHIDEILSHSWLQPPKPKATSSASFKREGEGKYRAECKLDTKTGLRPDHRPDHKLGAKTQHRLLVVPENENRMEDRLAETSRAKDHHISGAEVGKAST
The test can be described thus: Inhibition of human full length TSSK2 expressed in baculovirus assessed as substrate phosphorylation using fluorescence-labelled peptides as substrate at 420 uM after 90 mins by microfluidic peptide phosphorylation assay.

The record followed here is ChEMBL document CHEMBL3132769, “Fragment growing to retain or alter the selectivity of anchored kinase hinge-binding fragments” (Medchemcomm, 2014).

Chain of MAP kinase-activated protein kinase 3 (Homo sapiens) (Q16644 whole entry, looked up): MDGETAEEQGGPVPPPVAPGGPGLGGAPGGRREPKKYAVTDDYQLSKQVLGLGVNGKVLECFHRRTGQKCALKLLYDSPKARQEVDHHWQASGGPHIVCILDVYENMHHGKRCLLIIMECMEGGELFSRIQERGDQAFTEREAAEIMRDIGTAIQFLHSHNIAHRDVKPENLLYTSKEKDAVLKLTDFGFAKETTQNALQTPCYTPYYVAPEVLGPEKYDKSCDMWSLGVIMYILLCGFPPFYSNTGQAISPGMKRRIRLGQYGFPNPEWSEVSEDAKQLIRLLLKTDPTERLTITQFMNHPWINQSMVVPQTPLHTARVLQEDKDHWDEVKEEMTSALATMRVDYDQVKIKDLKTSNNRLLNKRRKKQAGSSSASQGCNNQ
Chain of Tyrosine-protein kinase Lyn (Homo sapiens) (P07948 2-512 limits assumed): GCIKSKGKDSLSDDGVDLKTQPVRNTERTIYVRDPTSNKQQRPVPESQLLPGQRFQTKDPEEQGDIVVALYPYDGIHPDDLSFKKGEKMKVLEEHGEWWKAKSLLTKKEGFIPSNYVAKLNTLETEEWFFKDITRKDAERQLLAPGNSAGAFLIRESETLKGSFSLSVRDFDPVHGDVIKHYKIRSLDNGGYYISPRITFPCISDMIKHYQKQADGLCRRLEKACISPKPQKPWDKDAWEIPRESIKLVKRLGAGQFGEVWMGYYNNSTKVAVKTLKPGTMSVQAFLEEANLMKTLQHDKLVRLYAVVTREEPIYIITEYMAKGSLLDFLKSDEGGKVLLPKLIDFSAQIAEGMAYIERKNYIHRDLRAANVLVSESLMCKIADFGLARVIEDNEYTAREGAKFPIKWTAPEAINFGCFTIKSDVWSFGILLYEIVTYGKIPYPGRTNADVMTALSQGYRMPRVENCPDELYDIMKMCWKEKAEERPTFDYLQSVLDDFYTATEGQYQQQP
Chain of Casein kinase I isoform alpha (Homo sapiens) (P48729 2-337 limits assumed): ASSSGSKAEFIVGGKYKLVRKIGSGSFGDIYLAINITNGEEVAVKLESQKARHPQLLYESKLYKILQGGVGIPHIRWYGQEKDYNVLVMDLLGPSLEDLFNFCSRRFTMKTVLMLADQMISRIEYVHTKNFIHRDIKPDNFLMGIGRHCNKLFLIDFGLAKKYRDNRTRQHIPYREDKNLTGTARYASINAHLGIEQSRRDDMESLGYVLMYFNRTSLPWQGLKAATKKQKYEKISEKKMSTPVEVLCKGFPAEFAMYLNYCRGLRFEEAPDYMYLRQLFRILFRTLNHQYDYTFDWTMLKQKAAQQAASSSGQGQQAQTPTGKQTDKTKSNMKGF
Chain of Ribosomal protein S6 kinase alpha-2 (Homo sapiens) (Q15349 whole entry): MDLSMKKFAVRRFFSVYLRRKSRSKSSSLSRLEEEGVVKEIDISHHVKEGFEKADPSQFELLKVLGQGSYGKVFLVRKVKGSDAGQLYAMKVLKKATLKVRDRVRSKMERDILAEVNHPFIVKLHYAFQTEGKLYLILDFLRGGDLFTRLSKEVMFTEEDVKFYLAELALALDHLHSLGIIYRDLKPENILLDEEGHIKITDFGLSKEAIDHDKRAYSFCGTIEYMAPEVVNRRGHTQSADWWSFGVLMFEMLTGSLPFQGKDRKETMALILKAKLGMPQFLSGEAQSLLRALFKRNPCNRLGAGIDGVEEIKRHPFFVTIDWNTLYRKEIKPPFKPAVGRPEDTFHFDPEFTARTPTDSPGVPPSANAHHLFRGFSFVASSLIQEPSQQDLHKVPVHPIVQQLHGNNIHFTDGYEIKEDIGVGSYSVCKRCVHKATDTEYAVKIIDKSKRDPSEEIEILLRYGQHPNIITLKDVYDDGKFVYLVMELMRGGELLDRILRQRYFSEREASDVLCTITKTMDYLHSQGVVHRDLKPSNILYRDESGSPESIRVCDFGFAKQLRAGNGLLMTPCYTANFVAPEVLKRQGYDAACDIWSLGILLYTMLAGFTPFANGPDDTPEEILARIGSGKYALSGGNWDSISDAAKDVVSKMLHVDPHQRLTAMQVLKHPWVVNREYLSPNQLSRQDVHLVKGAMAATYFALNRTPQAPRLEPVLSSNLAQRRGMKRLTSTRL
Chain of Protein kinase C beta type (Homo sapiens) (P05771 2-671 limits assumed): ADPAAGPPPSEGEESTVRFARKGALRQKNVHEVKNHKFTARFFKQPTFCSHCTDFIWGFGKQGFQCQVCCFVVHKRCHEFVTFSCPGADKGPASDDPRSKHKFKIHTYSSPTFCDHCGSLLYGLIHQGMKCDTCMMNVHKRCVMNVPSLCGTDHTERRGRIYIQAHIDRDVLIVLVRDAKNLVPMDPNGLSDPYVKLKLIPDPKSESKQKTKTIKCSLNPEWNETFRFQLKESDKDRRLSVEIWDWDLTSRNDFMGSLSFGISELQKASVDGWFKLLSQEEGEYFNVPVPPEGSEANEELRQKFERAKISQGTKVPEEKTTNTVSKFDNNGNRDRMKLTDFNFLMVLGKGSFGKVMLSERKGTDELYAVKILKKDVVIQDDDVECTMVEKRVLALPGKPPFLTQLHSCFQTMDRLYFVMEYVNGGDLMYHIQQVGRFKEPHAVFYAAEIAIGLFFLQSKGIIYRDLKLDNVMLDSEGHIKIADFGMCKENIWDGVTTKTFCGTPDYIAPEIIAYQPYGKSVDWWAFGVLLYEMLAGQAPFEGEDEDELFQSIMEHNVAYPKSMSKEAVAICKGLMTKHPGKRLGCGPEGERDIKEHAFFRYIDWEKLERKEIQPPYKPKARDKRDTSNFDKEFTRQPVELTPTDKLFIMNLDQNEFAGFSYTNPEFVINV
Chain of Hepatocyte growth factor receptor (Homo sapiens) (P08581 whole entry, the tested form may be a part): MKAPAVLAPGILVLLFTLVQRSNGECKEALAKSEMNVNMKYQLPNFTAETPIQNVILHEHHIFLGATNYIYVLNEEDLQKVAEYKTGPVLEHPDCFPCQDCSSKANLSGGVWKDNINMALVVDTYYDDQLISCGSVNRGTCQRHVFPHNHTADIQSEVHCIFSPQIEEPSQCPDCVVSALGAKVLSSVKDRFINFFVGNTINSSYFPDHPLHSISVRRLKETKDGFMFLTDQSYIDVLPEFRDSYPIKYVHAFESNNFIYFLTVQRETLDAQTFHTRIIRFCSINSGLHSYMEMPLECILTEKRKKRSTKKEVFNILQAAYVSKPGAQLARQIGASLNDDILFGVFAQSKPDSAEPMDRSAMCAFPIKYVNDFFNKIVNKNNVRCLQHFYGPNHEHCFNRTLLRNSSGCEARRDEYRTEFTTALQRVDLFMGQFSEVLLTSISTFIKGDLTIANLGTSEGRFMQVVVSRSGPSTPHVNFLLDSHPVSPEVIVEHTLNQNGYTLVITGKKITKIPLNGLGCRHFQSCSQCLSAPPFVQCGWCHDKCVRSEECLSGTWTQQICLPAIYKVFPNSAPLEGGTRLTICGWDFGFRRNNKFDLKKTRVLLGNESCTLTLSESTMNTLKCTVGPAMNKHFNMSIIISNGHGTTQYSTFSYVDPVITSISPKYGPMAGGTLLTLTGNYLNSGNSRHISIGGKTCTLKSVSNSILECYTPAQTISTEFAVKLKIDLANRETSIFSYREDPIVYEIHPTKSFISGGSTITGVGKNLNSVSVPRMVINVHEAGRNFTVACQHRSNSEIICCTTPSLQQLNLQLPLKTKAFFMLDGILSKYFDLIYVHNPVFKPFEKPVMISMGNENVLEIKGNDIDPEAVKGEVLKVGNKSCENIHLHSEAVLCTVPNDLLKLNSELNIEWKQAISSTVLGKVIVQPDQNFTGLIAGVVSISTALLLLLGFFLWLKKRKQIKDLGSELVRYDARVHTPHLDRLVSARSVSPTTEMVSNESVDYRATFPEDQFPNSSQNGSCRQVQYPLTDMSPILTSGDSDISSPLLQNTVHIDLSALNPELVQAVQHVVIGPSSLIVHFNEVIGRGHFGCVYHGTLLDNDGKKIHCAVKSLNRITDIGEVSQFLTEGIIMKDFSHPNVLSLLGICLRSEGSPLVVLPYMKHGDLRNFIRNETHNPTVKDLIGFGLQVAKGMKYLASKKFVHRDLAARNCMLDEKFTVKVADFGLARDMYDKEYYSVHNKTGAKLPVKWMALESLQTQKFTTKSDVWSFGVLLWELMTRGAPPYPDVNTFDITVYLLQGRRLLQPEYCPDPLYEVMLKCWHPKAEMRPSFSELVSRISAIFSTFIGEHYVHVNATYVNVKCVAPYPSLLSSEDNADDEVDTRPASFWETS

In the case of `NC1CCN(c2ncnc3[nH]ccc23)CC1`, the inhibition in test [1] is 2%.

Turning to `Clc1ccc(C2(c3ccc(-c4ncnc5[nH]cnc45)cc3)CCNCC2)cc1`, the inhibition in [2] amounted to 33%; in test [3], 9.5%; in test [4] it was 46%; in test [5] it was 4%.

Take `NC1(Cc2ccc(Cl)cc2)CCN(c2ncnc3[nH]ccc23)CC1`: in [6], the inhibition came out at 0%.

In the case of `NCC1CN(c2ncnc3[nH]c4cnccc4c23)CCO1` (stereo unspecified), in test [7], the inhibition came to 23.5%.

In the case of `NCC1CCN(c2ncnc3[nH]ccc23)CC1`, the inhibition in test [8] amounted to 51%.

On to `COC(=O)c1cnc(Nc2cnc(C#N)cn2)cc1NCC1CCNCC1`, for which the inhibition amounted to 2% in test [9] and 7% in [10].

`c1nc(N2CCOCC2)c2nc[nH]c2n1`: the inhibition in test [11] was determined as 24.5%.

Usually inhibition stands for the share of the control response that was lost under treatment.
